Experimental data as given in patent US10865211B2 (ENANTA PHARMACEUTICALS, INC, priority 2018, dated 2020).

Experiments:
2.2.15 cells = assay: Antiviral activity in 2.2.15 cells: reduction of viral product accumulation (qPCR, HBsAg/HBeAg ELISA); format: cell-based, HBV; details: Hepatitis B virus, 120 h, day 5 post treatment, concentration reducing viral product accumulation in cell lysates or supernatants by 50% relative to no drug controls
Description: 2.2.15 cells are passaged upon attaining confluency in DMEM/F12 media in the presence of 10% FBS, Penn/Strep, and 250 ug/mL G418. Novel compounds are 5 fold serially diluted in DMSO and added to 96 well plates containing 35,000 cells/well at a 1:200 dilution so that the final concentration of DMSO is 0.5%. On day 5, post treatment cell lysates and supernatants are harvested for analysis.
Cells are lysed using Agilent Sidestep Lysis buffer, diluted 1:100 and quantified via quantitative real time PCR. Commercially available ELISA kits are used to quantitate the viral proteins HBsAg (Alpco) or HBeAg (US Biological) by following the manufacturer's recommended protocol after diluting samples to match the linear range of their respective assays. Irrespective of readout, compound concentrations that reduce viral product accumulation in the cell lysates or supernatants by 50% relative to no drug controls (EC50) are reported; EC50 ranges are as follows: A<0.1 μM; B 0.1-1 μM; C>1 μM.

[1] = Compound induced cellular toxicity in HepG2 cells (ATPlite); format: cell-based; details: human, three days, ATPlite 1 Step, concentration reducing total ATP levels by 50% relative to no drug controls
Description: At day 3, post seeding cells are treated with ATPlite 1 Step according to the manufacturer's instructions.

| SMILES | EC50 (2.2.15 cells) | CC50 at 3 days [1] |
| --- | --- | --- |
| CCC1Cc2c(oc3ccccc23)-c2cc(=O)c(C(=O)O)cn21 (stereo not drawn) [Example 1, 6-ethyl-2-oxo-6,7-dihydro-2H-benzofuro[2,3-a]quinolizine-3-carboxylic acid] | 100 to 1000 nM | > 25000 nM |
| O=C(O)c1cn2c(cc1=O)-c1oc3ccccc3c1CC2c1ccccc1 (stereo not drawn) [Example 2, 2-oxo-6-phenyl-6,7-dihydro-2H-benzofuro[2,3-a]quinolizine-3-carboxylic acid] | > 1000 nM | > 25000 nM |
| CC(C)(C)[C@@H]1Cc2c(oc3ccccc23)-c2cc(=O)c(C(=O)O)cn21 [Example 3, (S)-6-(tert-butyl)-2-oxo-6,7-dihydro-2H-benzofuro[2,3-a]quinolizine-3-carboxylic acid] | < 100 nM | > 25000 nM |
| CC(C)(C)[C@@H]1Cc2c(oc3c(OC(F)F)cccc23)-c2cc(=O)c(C(=O)O)cn21 [Example 4, (S)-6-(tert-butyl)-11-(difluoromethoxy)-2-oxo-6,7-dihydro-2H-benzofuro[2,3-a]quinolizine-3-carboxylic acid] | < 100 nM | > 25000 nM |
| CC(C)(C)[C@@H]1Cc2c(oc3cc(-c4ccoc4)ccc23)-c2cc(=O)c(C(=O)O)cn21 [Example 5, (S)-6-(tert-butyl)-10-(furan-3-yl)-2-oxo-6,7-dihydro-2H-benzofuro[2,3-a]quinolizine-3-carboxylic acid] | < 100 nM | – |
| CC(C)(C)[C@@H]1Cc2c(oc3cc(OC(F)F)ccc23)-c2cc(=O)c(C(=O)O)cn21 [Example 6, (S)-6-(tert-butyl)-10-(difluoromethoxy)-2-oxo-6,7-dihydro-2H-benzofuro[2,3-a]quinolizine-3-carboxylic acid] | < 100 nM | 10000 to 25000 nM |
| CC(C)(C)[C@@H]1Cc2c(oc3cc(OC(F)F)ccc23)-c2cc(=O)c(-c3ncn[nH]3)cn21 [Example 7, (S)-6-(tert-butyl)-10-(difluoromethoxy)-3-(1H-1,2,4-triazol-5-yl)-6,7-dihydro-2H-benzofuro[2,3-a]quinolizin-2-one] | < 100 nM | > 25000 nM |
| CC(C)(C)[C@@H]1Cc2c(oc3c(OC(F)F)cccc23)-c2cc(=O)c(-c3ncn[nH]3)cn21 [Example 8, (S)-6-(tert-butyl)-11-(difluoromethoxy)-3-(1H-1,2,4-triazol-5-yl)-6,7-dihydro-2H-benzofuro[2,3-a]quinolizin-2-one] | < 100 nM | > 25000 nM |
| Cn1ccc(-c2ccc3c4c(oc3c2)-c2cc(=O)c(C(=O)O)cn2[C@H](C(C)(C)C)C4)n1 [Example 9, (S)-6-(tert-butyl)-10-(1-methyl-1H-pyrazol-3-yl)-2-oxo-6,7-dihydro-2H-benzofuro[2,3-a]quinolizine-3-carboxylic acid] | < 100 nM | – |
| Cn1cc(-c2ccc3c4c(oc3c2)-c2cc(=O)c(C(=O)O)cn2[C@H](C(C)(C)C)C4)cn1 [Example 10, (S)-6-(tert-butyl)-10-(1-methyl-1H-pyrazol-4-yl)-2-oxo-6,7-dihydro-2H-benzofuro[2,3-a]quinolizine-3-carboxylic acid] | < 100 nM | > 25000 nM |
| Cn1nccc1-c1ccc2c3c(oc2c1)-c1cc(=O)c(C(=O)O)cn1[C@H](C(C)(C)C)C3 [Example 11, (S)-6-(tert-butyl)-10-(1-methyl-1H-pyrazol-5-yl)-2-oxo-6,7-dihydro-2H-benzofuro[2,3-a]quinolizine-3-carboxylic acid] | < 100 nM | > 25000 nM |
| CC(C)(C)[C@@H]1Cc2c(oc3cc(C#N)ccc23)-c2cc(=O)c(C(=O)O)cn21 [Example 12, (S)-6-(tert-butyl)-10-cyano-2-oxo-6,7-dihydro-2H-benzofuro[2,3-a]quinolizine-3-carboxylic acid] | < 100 nM | > 25000 nM |
| CC(C)(C)[C@@H]1Cc2c(oc3cc(-c4cn[nH]c4)ccc23)-c2cc(=O)c(C(=O)O)cn21 [Example 13, (S)-6-(tert-butyl)-2-oxo-10-(1H-pyrazol-4-yl)-6,7-dihydro-2H-benzofuro[2,3-a]quinolizine-3-carboxylic acid] | < 100 nM | > 25000 nM |
| CC(C)(C)[C@@H]1Cc2c(oc3cc(-c4ccn[nH]4)ccc23)-c2cc(=O)c(C(=O)O)cn21 [Example 14, (S)-6-(tert-butyl)-2-oxo-10-(1H-pyrazol-5-yl)-6,7-dihydro-2H-benzofuro[2,3-a]quinolizine-3-carboxylic acid] | < 100 nM | > 25000 nM |
| CC(C)(C)[C@@H]1Cc2c(oc3cc(-c4ccco4)ccc23)-c2cc(=O)c(C(=O)O)cn21 [Example 15, (S)-6-(tert-butyl)-10-(furan-2-yl)-2-oxo-6,7-dihydro-2H-benzofuro[2,3-a]quinolizine-3-carboxylic acid] | < 100 nM | – |
| CC(C)(C)[C@@H]1Cc2c(oc3cc(-c4cnco4)ccc23)-c2cc(=O)c(C(=O)O)cn21 [Example 17, (S)-6-(tert-butyl)-10-(oxazol-5-yl)-2-oxo-6,7-dihydro-2H-benzofuro[2,3-a]quinolizine-3-carboxylic acid] | < 100 nM | > 25000 nM |
| CC(C)(C)[C@@H]1Cc2c(oc3cc(-c4cccs4)ccc23)-c2cc(=O)c(C(=O)O)cn21 [Example 18, (S)-6-(tert-butyl)-2-oxo-10-(thiophen-2-yl)-6,7-dihydro-2H-benzofuro[2,3-a]quinolizine-3-carboxylic acid] | < 100 nM | – |
| CC(C)(C)[C@@H]1Cc2c(oc3cc(-c4cnsc4)ccc23)-c2cc(=O)c(C(=O)O)cn21 [Example 19, (S)-6-(tert-butyl)-10-(isothiazol-4-yl)-2-oxo-6,7-dihydro-2H-benzofuro[2,3-a]quinolizine-3-carboxylic acid] | < 100 nM | – |
| CC(C)(C)[C@@H]1Cc2c(oc3cc(-c4ccsc4)ccc23)-c2cc(=O)c(C(=O)O)cn21 [Example 20, (S)-6-(tert-butyl)-2-oxo-10-(thiophen-3-yl)-6,7-dihydro-2H-benzofuro[2,3-a]quinolizine-3-carboxylic acid] | < 100 nM | – |
| CC(C)(C)[C@@H]1Cc2c(oc3cc(-c4nccs4)ccc23)-c2cc(=O)c(C(=O)O)cn21 [Example 21, (S)-6-(tert-butyl)-2-oxo-10-(thiazol-2-yl)-6,7-dihydro-2H-benzofuro[2,3-a]quinolizine-3-carboxylic acid] | < 100 nM | 10000 to 25000 nM |
| CC(C)(C)[C@@H]1Cc2c(oc3cc(-c4cscn4)ccc23)-c2cc(=O)c(C(=O)O)cn21 [Example 22, (S)-6-(tert-butyl)-2-oxo-10-(thiazol-4-yl)-6,7-dihydro-2H-benzofuro[2,3-a]quinolizine-3-carboxylic acid] | < 100 nM | – |
| CC(C)(C)[C@@H]1Cc2c(oc3cc(C4CC4)ccc23)-c2cc(=O)c(C(=O)O)cn21 [Example 23, (S)-6-(tert-butyl)-10-cyclopropyl-2-oxo-6,7-dihydro-2H-benzofuro[2,3-a]quinolizine-3-carboxylic acid] | < 100 nM | 10000 to 25000 nM |
| Cc1ccc2c3c(oc2c1)-c1cc(=O)c(C(=O)O)cn1[C@H](C(C)(C)C)C3 [Example 24, (S)-6-(tert-butyl)-10-methyl-2-oxo-6,7-dihydro-2H-benzofuro[2,3-a]quinolizine-3-carboxylic acid] | < 100 nM | > 25000 nM |
| CCc1ccc2c3c(oc2c1)-c1cc(=O)c(C(=O)O)cn1[C@H](C(C)(C)C)C3 [Example 25, (S)-6-(tert-butyl)-10-ethyl-2-oxo-6,7-dihydro-2H-benzofuro[2,3-a]quinolizine-3-carboxylic acid] | < 100 nM | > 25000 nM |
| CC(C)(C)[C@@H]1Cc2c(oc3c(-c4ccoc4)cccc23)-c2cc(=O)c(C(=O)O)cn21 [Example 26, (S)-6-(tert-butyl)-11-(furan-3-yl)-2-oxo-6,7-dihydro-2H-benzofuro[2,3-a]quinolizine-3-carboxylic acid] | < 100 nM | 10000 to 25000 nM |
| CC(C)(C)[C@@H]1Cc2c(oc3c(N4CCCC4)cccc23)-c2cc(=O)c(C(=O)O)cn21 [Example 40, (S)-6-(tert-butyl)-2-oxo-11-(pyrrolidin-1-yl)-6,7-dihydro-2H-benzofuro[2,3-a]quinolizine-3-carboxylic acid] | < 100 nM | – |
| Cc1cccc2c3c(oc12)-c1cc(=O)c(C(=O)O)cn1[C@H](C(C)(C)C)C3 [Example 44, (S)-6-(tert-butyl)-11-methyl-2-oxo-6,7-dihydro-2H-benzofuro[2,3-a]quinolizine-3-carboxylic acid] | 100 to 1000 nM | – |
| Cn1ccc(-c2cccc3c4c(oc23)-c2c(F)c(=O)c(C(=O)O)cn2[C@H](C(C)(C)C)C4)n1 [Example 56, (S)-6-(tert-butyl)-1-fluoro-11-(1-methyl-1H-pyrazol-3-yl)-2-oxo-6,7-dihydro-2H-benzofuro[2,3-a]quinolizine-3-carboxylic acid] | < 100 nM | – |
| CC(C)(C)[C@@H]1Cc2c(oc3c(N4CCC(F)(F)C4)cccc23)-c2c(F)c(=O)c(C(=O)O)cn21 [Example 60, (S)-6-(tert-butyl)-11-(3,3-difluoropyrrolidin-1-yl)-1-fluoro-2-oxo-6,7-dihydro-2H-benzofuro[2,3-a]quinolizine-3-carboxylic acid] | < 100 nM | – |
| CC(C)[C@@H]1Cc2c(oc3cc(-c4cccs4)ccc23)-c2cc(=O)c(C(=O)O)cn21 [Example 75, (S)-6-isopropyl-2-oxo-10-(thiophen-2-yl)-6,7-dihydro-2H-benzofuro[2,3-a]quinolizine-3-carboxylic acid] | < 100 nM | – |
